We go through seven compounds from ChEMBL document CHEMBL1201862, “PubChem BioAssay data set” (2004).

Some test systems named below: M14; HCT-116; SK-MEL-5; RPMI-8226; SF-539; NCI-H460; SK-MEL-2; LOX IMVI; SN12C; KM12; OVCAR-8; HOP-62; SNB-19; OVCAR-4; ACHN; A498; SK-OV-3; U-251; HCC 2998; HT-29.
What all share (experiment): NCI-60 cell line screen, 48 h

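These data come from cells grown in 96-well plates and exposed to compound for 48 hours at five concentrations. GI50 = concentration required for 50% inhibition of growth.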 The source made the active and inactive calls. No stated cut-off is given here; in the data, active = GI50 up to about 1.1 µM and inactive = higher. Where only a bound is given, the exact number is not on record here.

Regarding `CN(CCO)/N=N/c1[nH]cnc1C(N)=O`, the GI50 with M14 was 37.8 µM (inactive); in the assay with HCT-116 it was 49.5 µM (inactive); in the assay on SK-MEL-5, > 100 µM (inactive); in the assay with RPMI-8226 it was > 100 µM (inactive); in the assay on SF-539, > 100 µM (inactive); with NCI-H460, > 100 µM (inactive). Also, the GI50 is 22.5 µM (inactive) in the assay with SK-MEL-2; 26.2 µM (inactive) with LOX IMVI; > 100 µM (inactive) in the assay with SN12C; > 100 µM (inactive) in the assay on KM12; 45.7 µM (inactive) in the assay on OVCAR-8; 74 µM (inactive) in the assay on HOP-62. The GI50 in the assay with SNB-19 was > 100 µM (inactive); in the assay on OVCAR-4, > 100 µM (inactive); in the assay on ACHN, > 100 µM (inactive); in the assay with A498, > 100 µM (inactive); in the assay with SK-OV-3 it was 30.9 µM (inactive); with U-251, > 100 µM (inactive). Moreover, the GI50 in the assay on HCC 2998 and with HT-29 was > 100 µM (inactive) throughout.

As to `CC(=O)Nc1ccc(Sc2nnc(NC(C)=O)s2)cc1`, the GI50 with M14, with HCT-116, in the assay on SK-MEL-5, in the assay on RPMI-8226, in the assay on SF-539 and in the assay with NCI-H460 was > 100 µM (inactive) throughout. Further, the GI50 with SN12C, in the assay with KM12, in the assay on OVCAR-8, in the assay on HOP-62, in the assay with SNB-19 and in the assay on OVCAR-4 was > 100 µM (inactive) throughout. The GI50 in the assay with ACHN, in the assay on SK-OV-3, in the assay on U-251 and with HCC 2998 was > 100 µM (inactive) throughout.

For the compound `CN(C)CCCNC(=O)N/N=C\c1cccc2ccccc12`, the GI50 with M14, in the assay on HCT-116, with SK-MEL-5, in the assay with RPMI-8226, in the assay with SF-539 and in the assay on NCI-H460 was > 10 µM (inactive) each time. The GI50 in the assay on LOX IMVI, in the assay on SN12C, with KM12, in the assay with OVCAR-8, in the assay with HOP-62 and in the assay on OVCAR-4 was > 10 µM (inactive) throughout. Also, the GI50 in the assay with ACHN, with A498, in the assay on SK-OV-3, in the assay on HCC 2998 and in the assay with HT-29 was > 10 µM (inactive) each time.

Take `COc1cc(C2c3cc4c(cc3[C@@H](Nc3ccccc3)C3COC(=O)[C@H]23)OCO4)cc(OC)c1O` (stereo partly drawn): the GI50 was 0.391 µM (active) with HCT-116; 0.787 µM (active) in the assay with SK-MEL-5; 0.234 µM (active) in the assay with RPMI-8226; 0.322 µM (active) with SF-539; < 0.01 µM (active) in the assay with NCI-H460; 2.79 µM (inactive) with SK-MEL-2. Moreover, the GI50 was 0.414 µM (active) with LOX IMVI; 0.485 µM (active) in the assay with SN12C; 1.47 µM (inactive) with KM12; 1.18 µM (inactive) with OVCAR-8; 0.155 µM (active) in the assay on HOP-62; 0.34 µM (active) in the assay on SNB-19. Also, the GI50 was 5.6 µM (inactive) in the assay with OVCAR-4; 0.221 µM (active) in the assay with A498; 0.845 µM (active) in the assay on SK-OV-3; 0.391 µM (active) in the assay on U-251; 1.23 µM (inactive) in the assay on HCC 2998; 1.23 µM (inactive) in the assay on HT-29.

In the case of `N#CCCN(CCC#N)c1ccc(/C=C(/NC(=O)Nc2ccccc2Cl)NC(=O)c2cc([N+](=O)[O-])ccc2Cl)cc1`, the GI50 with M14 was > 100 µM (inactive); with HCT-116 it was > 100 µM (inactive); in the assay with SK-MEL-5, > 100 µM (inactive); with RPMI-8226, 52.4 µM (inactive); in the assay on SF-539 it was > 100 µM (inactive); in the assay with SK-MEL-2, > 100 µM (inactive). Further, the GI50 was > 100 µM (inactive) in the assay with LOX IMVI; > 100 µM (inactive) in the assay with SN12C; > 100 µM (inactive) in the assay with KM12; 58.5 µM (inactive) with OVCAR-8; > 100 µM (inactive) with HOP-62; > 100 µM (inactive) in the assay on SNB-19. Besides, the GI50 was > 100 µM (inactive) in the assay with OVCAR-4; 42.2 µM (inactive) with ACHN; > 100 µM (inactive) in the assay with SK-OV-3; > 100 µM (inactive) with U-251; > 100 µM (inactive) in the assay on HCC 2998.

For the compound `C=C(C)C1Cc2c(c3ccccc3n(C)c2=O)O1` (stereo not drawn), the GI50 with M14, in the assay with SK-MEL-5, in the assay with RPMI-8226, in the assay with SF-539, in the assay on NCI-H460 and in the assay with SK-MEL-2 was > 100 µM (inactive) in each case. Besides, the GI50 in the assay on LOX IMVI is > 100 µM (inactive); with SN12C it was > 100 µM (inactive); in the assay on OVCAR-8, > 100 µM (inactive); with HOP-62, < 0.01 µM (active); with SNB-19, > 100 µM (inactive); in the assay with ACHN it was > 100 µM (inactive). The GI50 with A498, in the assay on SK-OV-3, with U-251 and in the assay on HT-29 was > 100 µM (inactive) in each case.

As to `Brc1ccc2c(c1)[C@H]1CCc3c([nH]c4ccccc34)[C@H]1N2`, the GI50 with M14 is 13.2 µM (inactive); in the assay with HCT-116, 8.49 µM (inactive); in the assay with SK-MEL-5, 3.13 µM (inactive); with RPMI-8226, 4.39 µM (inactive); in the assay with SF-539, 2.36 µM (inactive); in the assay with NCI-H460, 12.4 µM (inactive). In addition, the GI50 with SK-MEL-2 is 16.6 µM (inactive); with LOX IMVI, 4.38 µM (inactive); in the assay with SN12C it was 13 µM (inactive); in the assay with KM12 it was 5.31 µM (inactive); with OVCAR-8, 13.3 µM (inactive); with HOP-62, 10.9 µM (inactive). Moreover, the GI50 in the assay on SNB-19 is 13.7 µM (inactive); with OVCAR-4, 13 µM (inactive); in the assay on ACHN, 12.5 µM (inactive); in the assay with SK-OV-3, 14.3 µM (inactive); in the assay on U-251 it was 10.1 µM (inactive); with HCC 2998 it was 12.9 µM (inactive). For the same compound, the GI50 with HT-29 is 14.1 µM (inactive).
